PubChem BioAssay AID242 (DTP/NCI, 2004)
“And” between values parts separate entries of the source, which are not always exact repeats. Equal entries are not always repeated. Inconclusive results and toxic doses are left out.

Tested on: BDF1 mice, Lymphoma 8 ip, survival T/C
Assay: NCI In Vivo Anticancer Drug Screen. Data for tumor model Lymphoma 8 (intraperitoneal) in B6D2F1 (BDF1) mice
Settings: higher = longer survival
Protocol: The antitumor activity of compounds was measured in mice bearing transplantable tumors. Survival or tumor size were measured and the results are expressed as the measurement made in the treated group (T) divided by the measurement made in the vehicle treated control group (C). The tumor model used in this assay is Lymphoma 8 (intraperitoneal) in B6D2F1 (BDF1) mice

[1] = endpoint: survival time, mean or median, dose: 5.0 mg/kg/injection, schedule: Q01DX010 (ip), vehicle: saline
[2] = endpoint: survival time, mean or median, dose: 10.0 mg/kg/injection, schedule: Q01DX010 (ip), vehicle: saline
[3] = endpoint: survival time, mean or median, dose: 20.0 mg/kg/injection, schedule: Q01DX010 (ip), vehicle: saline
[4] = endpoint: survival time, mean or median, dose: 40.0 mg/kg/injection, schedule: Q01DX010 (ip), vehicle: saline
[5] = endpoint: survival time, mean or median, dose: 0.5 mg/kg/injection, schedule: Q01DX015 (ip), vehicle: carboxymethylcellulose (CMC)
[6] = endpoint: survival time, mean or median, dose: 1.0 mg/kg/injection, schedule: Q01DX015 (ip), vehicle: carboxymethylcellulose (CMC)
[7] = endpoint: survival time, mean or median, dose: 12.5 mg/kg/injection, schedule: Q01DX010 (ip), vehicle: saline
[8] = endpoint: survival time, mean or median, dose: 25.0 mg/kg/injection, schedule: Q01DX010 (ip), vehicle: saline
[9] = endpoint: survival time, mean or median, dose: 12.5 mg/kg/injection, schedule: Q01DX015 (ip), vehicle: carboxymethylcellulose (CMC)
[10] = endpoint: survival time, mean or median, dose: 25.0 mg/kg/injection, schedule: Q01DX015 (ip), vehicle: carboxymethylcellulose (CMC)
[11] = endpoint: survival time, mean or median, dose: 100.0 mg/kg/injection, schedule: Q01DX015 (ip), vehicle: carboxymethylcellulose (CMC)
[12] = endpoint: survival time, mean or median, dose: 50.0 mg/kg/injection, schedule: Q01DX015 (ip), vehicle: carboxymethylcellulose (CMC)
[13] = endpoint: survival time, mean or median, dose: 50.0 mg/kg/injection, schedule: Q01DX010 (ip), vehicle: saline
[14] = endpoint: survival time, mean or median, dose: 100.0 mg/kg/injection, schedule: Q01DX010 (ip), vehicle: saline
[15] = endpoint: survival time, mean or median, dose: 0.5 mg/kg/injection, schedule: Q01DX010 (ip), vehicle: saline
[16] = endpoint: survival time, mean or median, dose: 1.0 mg/kg/injection, schedule: Q01DX010 (ip), vehicle: saline
[17] = endpoint: survival time, mean or median, dose: 2.5 mg/kg/injection, schedule: Q01DX010 (ip), vehicle: saline

C[C@@H]1C[C@@H]([C@H](O)CC2CC(=O)NC(=O)C2)C(=O)[C@@H](C)C1
T/C [1]: 115 % of control
T/C [2]: 105 % of control
T/C [3]: 115 % of control
T/C [4]: 120 % of control

NC(=O)c1cn(C2OC(CO)C(O)C2O)c2ncnc(N)c12 (stereo not given)
T/C [5]: 106 % of control
T/C [6]: 116 % of control
T/C (endpoint: survival time, mean or median, dose: 2.0 mg/kg/injection, schedule: Q01DX015 (ip), vehicle: carboxymethylcellulose (CMC)): 94 % of control

N=[N+]=CC(=O)OCC(N)C(=O)O (stereo not given)
T/C (endpoint: survival time, mean or median, dose: 3.13 mg/kg/injection, schedule: Q01DX010 (ip), vehicle: saline): 116 % of control
T/C [7]: 150 % of control
T/C [8]: 87 % of control and 91 % of control

O=C(O)c1[nH]c(=O)[nH]c(=O)c1F
T/C (endpoint: survival time, mean or median, dose: 12.0 mg/kg/injection, schedule: Q01DX015 (ip), vehicle: carboxymethylcellulose (CMC)): 99 % of control
T/C [9]: 98 % of control

C[C@@H]1C[C@H]2CC[C@H](O2)[C@H](C)C(=O)O[C@@H](C)C[C@@H]2CC[C@@H](O2)[C@@H](C)C(=O)O[C@H](C)C[C@H]2CC[C@H](O2)[C@H](C)C(=O)O[C@@H](C)C[C@@H]2CC[C@@H](O2)[C@@H](C)C(=O)O1
T/C (endpoint: survival time, mean or median, dose: 45.0 mg/kg/injection, schedule: Q01DX015 (ip), vehicle: other): 102 % of control
T/C (endpoint: survival time, mean or median, dose: 90.0 mg/kg/injection, schedule: Q01DX015 (ip), vehicle: other): 94 % of control
T/C (endpoint: survival time, mean or median, dose: 360.0 mg/kg/injection, schedule: Q01DX015 (ip), vehicle: other): 88 % of control

CN(C)C(=S)N=Nc1c(O)[nH]c2ccccc12
T/C [10]: 124 % of control
T/C [11]: 104 % of control

COc1ccc(C[n+]2cc([O-])on2)cc1
T/C [9]: 99 % of control
T/C [10]: 106 % of control
T/C [12]: 100 % of control
T/C [11]: 113 % of control

CC(=O)NC1=C(N2CC2)C(=O)C(NC(C)=O)=C(N2CC2)C1=O
T/C [5]: 174 % of control
T/C [6]: 150 % of control

CC(C)CNS(=O)(=O)c1ncnc2nc[nH]c12
T/C (endpoint: survival time, mean or median, dose: 18.8 mg/kg/injection, schedule: Q01DX015 (ip), vehicle: carboxymethylcellulose (CMC)): 114 % of control
T/C (endpoint: survival time, mean or median, dose: 37.5 mg/kg/injection, schedule: Q01DX015 (ip), vehicle: carboxymethylcellulose (CMC)): 99 % of control
T/C (endpoint: survival time, mean or median, dose: 75.0 mg/kg/injection, schedule: Q01DX015 (ip), vehicle: carboxymethylcellulose (CMC)): 96 % of control

Nc1nc(SCc2ccccn2)c2[nH]cnc2n1
T/C [9]: 98 % of control
T/C [10]: 96 % of control
T/C [11]: 104 % of control

N#CCSc1ncnc2nc[nH]c12
T/C (endpoint: survival time, mean or median, dose: 15.0 mg/kg/injection, schedule: Q01DX010 (ip), vehicle: saline): 100 % of control
T/C (endpoint: survival time, mean or median, dose: 30.0 mg/kg/injection, schedule: Q01DX010 (ip), vehicle: saline): 95 % of control and 104 % of control
T/C (endpoint: survival time, mean or median, dose: 60.0 mg/kg/injection, schedule: Q01DX010 (ip), vehicle: saline): 100 % of control
T/C (endpoint: survival time, mean or median, dose: 120.0 mg/kg/injection, schedule: Q01DX010 (ip), vehicle: saline): 100 % of control

CCN(CCNc1ccc(C)c2sc3cc(Cl)ccc3c(=O)c12)CC(C)O (stereo not given)
T/C (endpoint: survival time, mean or median, dose: 7.8 mg/kg/injection, schedule: Q01DX010 (ip), vehicle: saline): 100 % of control
T/C (endpoint: survival time, mean or median, dose: 15.6 mg/kg/injection, schedule: Q01DX010 (ip), vehicle: saline): 100 % of control
T/C (endpoint: survival time, mean or median, dose: 31.3 mg/kg/injection, schedule: Q01DX010 (ip), vehicle: saline): 96 % of control

CSc1ncnc2nc[nH]c12
T/C [8]: 103 % of control
T/C [13]: 103 % of control
T/C [14]: 100 % of control

CN(N=O)C(N)=O
T/C [1]: 114 % of control
T/C [3]: 110 % of control

CN(C)[C@@H]1C(=O)C(C(N)=O)=C(O)[C@@]2(O)C(=O)C3=C(O)c4c(O)cccc4C[C@H]3C[C@@H]12
T/C (endpoint: survival time, mean or median, dose: 15.0 mg/kg/injection, schedule: Q01DX015 (ip), vehicle: alkali diluted with saline): 93 % of control
T/C (endpoint: survival time, mean or median, dose: 30.0 mg/kg/injection, schedule: Q01DX015 (ip), vehicle: alkali diluted with saline): 89 % of control

Clc1ccc2c(Cl)ncnc2c1
T/C [10]: 95 % of control
T/C [12]: 88 % of control

C1CN1c1nc(N2CC2)nc(N2CC2)n1
T/C (endpoint: survival time, mean or median, dose: 0.13 mg/kg/injection, schedule: Q01DX010 (ip), vehicle: saline): 91 % of control and 100 % of control
T/C (endpoint: survival time, mean or median, dose: 0.25 mg/kg/injection, schedule: Q01DX010 (ip), vehicle: saline): 100 % of control and 104 % of control
T/C [15]: 166 % of control
T/C [16]: 87 % of control

CC(=O)Nc1ccc2nc3ccc(NC(C)=O)cc3[n+](-c3ccccc3)c2c1
T/C [8]: 107 % of control
T/C [13]: 89 % of control
T/C [14]: 92 % of control

NC(Cc1c[nH]c2ccc(N(CCCl)CCCl)cc12)C(=O)O (stereo not given)
T/C [15]: 92 % of control
T/C [16]: 103 % of control
T/C (endpoint: survival time, mean or median, dose: 4.0 mg/kg/injection, schedule: Q01DX010 (ip), vehicle: saline): 103 % of control

CS(=O)(=O)OCCCCOS(C)(=O)=O
T/C (endpoint: survival time, mean or median, dose: 6.25 mg/kg/injection, schedule: Q01DX010 (ip), vehicle: saline): 100 % of control
T/C [7]: 105 % of control
T/C [8]: 100 % of control
T/C [13]: 105 % of control

CC(=O)OCC1OC(n2cnc3c(=S)nc[nH]c32)C(OC(C)=O)C1OC(C)=O (stereo not given)
T/C [10]: 101 % of control
T/C [12]: 109 % of control
T/C [11]: 104 % of control

CCOC=Nc1c(N)ncnc1Cl
T/C (endpoint: survival time, mean or median, dose: 62.5 mg/kg/injection, schedule: Q01DX015 (ip), vehicle: olive oil, sesame oil, peanut oil): 107 % of control
T/C (endpoint: survival time, mean or median, dose: 125.0 mg/kg/injection, schedule: Q01DX015 (ip), vehicle: olive oil, sesame oil, peanut oil): 93 % of control
T/C (endpoint: survival time, mean or median, dose: 250.0 mg/kg/injection, schedule: Q01DX015 (ip), vehicle: olive oil, sesame oil, peanut oil): 101 % of control
T/C (endpoint: survival time, mean or median, dose: 500.0 mg/kg/injection, schedule: Q01DX015 (ip), vehicle: olive oil, sesame oil, peanut oil): 101 % of control

Cn1c(O)c(N=NC(N)=S)c2ccccc21
T/C (endpoint: survival time, mean or median, dose: 1.5 mg/kg/injection, schedule: Q01DX015 (ip), vehicle: carboxymethylcellulose (CMC)): 100 % of control
T/C (endpoint: survival time, mean or median, dose: 3.0 mg/kg/injection, schedule: Q01DX015 (ip), vehicle: carboxymethylcellulose (CMC)): 98 % of control
T/C (endpoint: survival time, mean or median, dose: 6.0 mg/kg/injection, schedule: Q01DX015 (ip), vehicle: carboxymethylcellulose (CMC)): 99 % of control
T/C [9]: 95 % of control
T/C [10]: 97 % of control
T/C [12]: 124 % of control
T/C [11]: 117 % of control
T/C (endpoint: survival time, mean or median, dose: 200.0 mg/kg/injection, schedule: Q01DX015 (ip), vehicle: carboxymethylcellulose (CMC)): 115 % of control

Nc1nc(=S)c2[nH]cnc2[nH]1
T/C (endpoint: survival time, mean or median, dose: 1.25 mg/kg/injection, schedule: Q01DX010 (ip), vehicle: other): 120 % of control
T/C (endpoint: survival time, mean or median, dose: 5.0 mg/kg/injection, schedule: Q01DX010 (ip), vehicle: other): 115 % of control
T/C (endpoint: survival time, mean or median, dose: 10.0 mg/kg/injection, schedule: Q01DX010 (ip), vehicle: other): 110 % of control

NC(=O)/C=C/NC(=O)/C=N\O
T/C (endpoint: survival time, mean or median, dose: 50.0 mg/kg/injection, schedule: Q01DX008 (ip), vehicle: saline): 92 % of control
T/C (endpoint: survival time, mean or median, dose: 200.0 mg/kg/injection, schedule: Q01DX008 (ip), vehicle: saline): 88 % of control

O=c1[nH]cc(F)c(=O)[nH]1
T/C (endpoint: median survival time, dose: 28.8 mg/kg/injection, schedule: Q04DX003 (ip), vehicle: saline): 155 % of control
T/C (endpoint: median survival time, dose: 48.0 mg/kg/injection, schedule: Q04DX003 (ip), vehicle: saline): 277 % of control
T/C (endpoint: median survival time, dose: 80.0 mg/kg/injection, schedule: Q04DX003 (ip), vehicle: saline): 331 % of control
T/C [1]: 108 % of control and 114 % of control
T/C [3]: 153 % of control and 158 % of control

N#[N+]c1cnc([O-])[nH]c1=O
T/C (endpoint: survival time, mean or median, dose: 1.25 mg/kg/injection, schedule: Q01DX010 (ip), vehicle: saline): 107 % of control
T/C [17]: 103 % of control
T/C [1]: 121 % of control
T/C [2]: 121 % of control

N=C(N)SCc1c2ccccc2c(CSC(=N)N)c2ccccc12
T/C [17]: 106 % of control and 121 % of control
T/C [1]: 113 % of control
T/C [3]: 113 % of control and 114 % of control

OCC1OC(n2cnc3c(=S)nc[nH]c32)C(O)C1O (stereo not given)
T/C [3]: 104 % of control and 112 % of control
T/C [4]: 100 % of control and 109 % of control and 112 % of control
T/C (endpoint: survival time, mean or median, dose: 80.0 mg/kg/injection, schedule: Q01DX010 (ip), vehicle: saline): 105 % of control and 118 % of control and 121 % of control
T/C (endpoint: survival time, mean or median, dose: 160.0 mg/kg/injection, schedule: Q01DX010 (ip), vehicle: saline): 93 % of control and 118 % of control
